In patent US20050148605A1, “Amide derivatives as ABL modulators” (Ambit Biosciences Corporation, priority 2003, published 2005) one finds Kd data, which are given here for two molecules.

Test [1] has as its target T1, ABL1(E274K) (Homo sapiens, UniProt P00519, E255K).
T1 construct: made in house; host or cells: T7 bacteriophage display
The test is described as follows: Binding constant (Kd) measurement, phage-displayed kinase competition binding assay: ABL1(E274K). To be noted: competition with immobilized ATP site ligand. The source says: (§1) Binding Constant (Kd) Measurements for Small-Molecule-Kinase Interactions
(§2) The term “ND” represents non-determined values.

Test [2] concerns the target T2, ABL1(DKIN) (Homo sapiens, UniProt P00519).
T2 construct: column label 'AB L1(DKIN)'; fused on or other part: Fused to a T7 bacteriophage particle (phage display)
T2 sequence (P00519 242-493 limits assumed): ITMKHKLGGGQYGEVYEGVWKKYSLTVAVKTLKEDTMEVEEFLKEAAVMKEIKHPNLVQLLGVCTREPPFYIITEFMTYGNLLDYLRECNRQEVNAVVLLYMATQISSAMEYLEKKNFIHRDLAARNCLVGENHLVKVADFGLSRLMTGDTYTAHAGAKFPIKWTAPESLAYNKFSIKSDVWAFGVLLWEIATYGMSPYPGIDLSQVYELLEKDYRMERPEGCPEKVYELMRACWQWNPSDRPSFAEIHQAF
The experiment in a line: Binding constant (Kd) measurement, phage-displayed kinase competition binding assay: ABL1(DKIN). To be noted: competition with immobilized ATP site ligand.
Text: as §1, §2

T1 sequence (P00519 1-1149 isoform P00519-2 E274K): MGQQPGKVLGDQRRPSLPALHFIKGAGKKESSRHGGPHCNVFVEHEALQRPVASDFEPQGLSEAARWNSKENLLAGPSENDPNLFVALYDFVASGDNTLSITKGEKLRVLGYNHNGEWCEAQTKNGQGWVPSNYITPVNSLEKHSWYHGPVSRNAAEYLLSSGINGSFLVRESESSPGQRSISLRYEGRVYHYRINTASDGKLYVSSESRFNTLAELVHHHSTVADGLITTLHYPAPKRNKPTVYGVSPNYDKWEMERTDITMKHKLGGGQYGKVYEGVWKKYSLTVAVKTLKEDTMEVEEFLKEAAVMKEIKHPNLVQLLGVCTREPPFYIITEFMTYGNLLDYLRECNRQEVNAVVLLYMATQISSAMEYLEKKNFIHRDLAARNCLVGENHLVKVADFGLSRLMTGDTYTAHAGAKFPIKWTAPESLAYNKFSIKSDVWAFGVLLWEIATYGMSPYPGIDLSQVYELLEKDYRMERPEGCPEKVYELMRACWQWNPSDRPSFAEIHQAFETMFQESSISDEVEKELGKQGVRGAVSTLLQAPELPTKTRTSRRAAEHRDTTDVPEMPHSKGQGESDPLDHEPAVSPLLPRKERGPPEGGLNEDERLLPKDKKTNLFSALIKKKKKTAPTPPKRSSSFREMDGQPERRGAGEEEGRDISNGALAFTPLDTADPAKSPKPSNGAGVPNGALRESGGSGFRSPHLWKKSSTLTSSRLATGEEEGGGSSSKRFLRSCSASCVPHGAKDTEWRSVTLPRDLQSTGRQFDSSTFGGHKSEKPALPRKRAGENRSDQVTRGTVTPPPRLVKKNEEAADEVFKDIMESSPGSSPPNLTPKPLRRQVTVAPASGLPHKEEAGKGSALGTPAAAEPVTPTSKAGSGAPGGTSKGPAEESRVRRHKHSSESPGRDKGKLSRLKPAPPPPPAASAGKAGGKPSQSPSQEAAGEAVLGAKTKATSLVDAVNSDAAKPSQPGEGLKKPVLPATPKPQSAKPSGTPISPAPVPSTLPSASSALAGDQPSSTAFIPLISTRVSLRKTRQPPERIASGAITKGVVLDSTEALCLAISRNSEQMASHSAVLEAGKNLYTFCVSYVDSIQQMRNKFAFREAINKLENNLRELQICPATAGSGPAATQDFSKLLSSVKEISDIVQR

`O=C(Cc1ccc(OCc2ccccc2)cc1)Nc1nc2cc(Cl)ccc2o1` [Compound B15] came in with a Kd in test [1] of more than 10 µM.

Molecule `O=C(Cc1ccc(F)cc1)Nc1cc(C2CC2)nn1-c1ccccc1` [Compound E7] registered an equilibrium dissociation constant (Kd) in test [2] of more than 10 µM.
